From PubChem BioAssay (NCI) come the findings set out here.

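Method: 48-hour compound exposure of cells in 96-well plates, five concentrations, linear interpolation of endpoints. The concentration for full growth arrest is given as TGI.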

Common to all, as to experiment: growth of human tumour cells (NCI), 48 h
The test system of assay [1] is CCRF-CEM leukemia.
For assay [2], the system named is COLO 205 colon.
For assay [3], the system named is EKVX NSCLC.
For assay [4], the system named is HCC-2998 colon.
The test system of assay [5] is HL-60(TB) leukemia.
The subject of assay [6] is IGROV1 ovarian.
For assay [7], the system named is MALME-3M melanoma.
The test system of assay [8] is MDA-MB-435.
Assay [9] relates to NCI-H522 lung.
In assay [10] the test system is OVCAR-5 ovarian.
Assay [11] deals with SF-268 CNS.
The subject of assay [12] is SK-MEL-28 melanoma.
Assay [13] concerns SK-MEL-5 melanoma.
The subject of assay [14] is SK-OV-3 ovarian.
Assay [15] deals with SR leukemia.
The test system of assay [16] is TK-10 renal.
Assay [17] relates to U251 CNS.
Assay [18] has as its system UACC-62 melanoma.

Regarding `COC(=O)Nc1nc2ccc(S(=O)(=O)SC)cc2[nH]1`, the TGI in assay [1] is 61.4 µM; in assay [2] it was more than 100 µM; in assay [3] it was 62.5 µM; in [4], 42.4 µM; in assay [5] it was 8.11 µM; in [6], 15.3 µM. Further, the TGI in assay [7] is 25.6 µM; in assay [8], 12.2 µM; in assay [9], more than 100 µM; in assay [10], 45.1 µM; in assay [11], more than 100 µM; in assay [12], 25.3 µM. Further, the TGI was more than 100 µM in [13]; 43 µM in assay [14]; 62.8 µM in [15]; 22.1 µM in assay [16]; 29.9 µM in assay [17]; 22.5 µM in assay [18].
Take `CCOC(=O)C1C(=O)CC1(C)C` (centres undefined): the TGI in [1], in assay [2], in assay [3], in [4], in assay [5] and in assay [6] was more than 10 µM in each case. Also, the TGI in [7], in assay [8], in [10], in assay [11], in assay [12] and in assay [13] was more than 10 µM each time. Besides, the TGI in assay [14], in assay [15], in [16], in [17] and in assay [18] was more than 10 µM throughout.
Regarding `Nc1nc(-[n+]2ccc(-c3ccncc3)cc2)nc(Cl)c1Cl`, the TGI was 31.8 µM in assay [1]; more than 100 µM in [2]; more than 100 µM in [3]; more than 100 µM in assay [4]; 38.9 µM in [5]; 33.3 µM in assay [6]. Also, the TGI in assay [7] is more than 100 µM; in assay [8] it was more than 100 µM; in [10], more than 100 µM; in assay [11] it was 34.6 µM; in assay [12], more than 100 µM; in assay [13], more than 100 µM. For the same molecule, the TGI in [14] is more than 100 µM; in [15], 41 µM; in assay [16], 59 µM; in assay [17], more than 100 µM; in assay [18], more than 100 µM.
On to `COC1=C(OC)C(=O)C(Cc2c(C)nc3sccn23)=C(C)C1=O`, for which the TGI in assay [1] turned out to be 23.8 µM; in assay [2] it was 26.8 µM; in assay [3] it was 29 µM; in [4] it was 40.3 µM; in assay [6] it was 40.9 µM; in [7] it was 31 µM. Also, the TGI came out at 28.6 µM in [8]; 54.9 µM in [9]; 34.6 µM in assay [10]; 37.3 µM in assay [11]; 23.3 µM in [12]; 17.6 µM in [13]. Further, the TGI in assay [14] was 26.8 µM; in assay [15], 38.9 µM; in [16] it was 32 µM; in assay [17], 33.1 µM; in [18], 23.5 µM.
Consider `CCC(=O)Oc1ccc2c(c1)c(=O)c1c(NCCCN(C)C)ccc3nnn2c31`, for which the TGI is 2.01 µM in [1]; 13.7 µM in assay [2]; 16.6 µM in assay [3]; 15 µM in [4]; 13.9 µM in assay [6]; 17 µM in assay [7]. Further, the TGI came out at 18.7 µM in [8]; 9.06 µM in [9]; 22.6 µM in assay [10]; 17.2 µM in assay [11]; 23.9 µM in assay [12]; 10.3 µM in assay [13]. The TGI is 18.9 µM in [14]; 6.01 µM in [15]; 15.5 µM in assay [16]; 17 µM in assay [17]; 23.5 µM in assay [18].
As for `CC1S/C(=N\N=C2/C(=O)Nc3ccc(Br)cc32)N(C2CCCCC2)C1=O` (centres undefined), the TGI was more than 100 µM in [1]; 33.4 µM in [2]; 22.2 µM in assay [3]; 45 µM in [4]; more than 100 µM in assay [5]; 31.1 µM in assay [7]. Further, the TGI in [8] is 23.1 µM; in assay [10], more than 100 µM; in [11], 22.3 µM; in [12], 23.8 µM; in [13], more than 100 µM; in assay [14], 14 µM. Besides, the TGI is 39.4 µM in assay [15], 6.58 µM in assay [16], 7.73 µM in assay [17] and 6.75 µM in assay [18].
Turning to `C=CCCC1(CC(Sc2ccccc2)P(=O)(c2ccccc2)c2ccccc2)OCCO1` (centres undefined), the TGI in assay [1], in assay [2], in assay [3], in assay [4], in assay [5] and in assay [6] was more than 10 µM in each case. Also, the TGI in [7], in [8], in assay [10], in assay [11], in assay [12] and in [13] was more than 10 µM each time. The TGI in assay [14], in [15], in assay [16], in assay [17] and in assay [18] was more than 10 µM throughout.
